Source: patent US10670605B2, “Cysteine reactive probes and uses thereof” (The Scripps Research Institute, priority 2015, dated 2020)

How the values were obtained:
Assay in all cases: Competitive isoTOP-ABPP in situ (fragment-treated cells)
Format in all cases: cell-based
[1] = molecular target: T1, cysteines in MDA-MB-231 and Ramos cells (Homo sapiens, UniProt Q13155)
T1 sequence (Q13155 1-320): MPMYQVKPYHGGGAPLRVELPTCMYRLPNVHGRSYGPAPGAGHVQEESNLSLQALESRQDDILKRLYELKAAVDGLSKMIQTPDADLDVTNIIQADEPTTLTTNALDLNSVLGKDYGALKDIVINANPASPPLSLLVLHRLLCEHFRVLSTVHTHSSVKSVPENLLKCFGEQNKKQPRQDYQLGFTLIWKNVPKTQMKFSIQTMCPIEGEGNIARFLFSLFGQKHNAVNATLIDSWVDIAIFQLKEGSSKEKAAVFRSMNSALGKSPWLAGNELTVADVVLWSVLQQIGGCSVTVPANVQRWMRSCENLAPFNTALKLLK

[2] = molecular target: T2, cysteines in MDA-MB-231 and Ramos cells (Homo sapiens, UniProt Q96T76); conditions: for isoTOP-ABPP reactivity Q96T76_C848 MMS19 / isoTOP-ABPP ratio Q96T76_C819 / isoTOP-ABPP ratio Q96T76_C848: 200 μM, insitu
T2 sequence (Q96T76 1-1030): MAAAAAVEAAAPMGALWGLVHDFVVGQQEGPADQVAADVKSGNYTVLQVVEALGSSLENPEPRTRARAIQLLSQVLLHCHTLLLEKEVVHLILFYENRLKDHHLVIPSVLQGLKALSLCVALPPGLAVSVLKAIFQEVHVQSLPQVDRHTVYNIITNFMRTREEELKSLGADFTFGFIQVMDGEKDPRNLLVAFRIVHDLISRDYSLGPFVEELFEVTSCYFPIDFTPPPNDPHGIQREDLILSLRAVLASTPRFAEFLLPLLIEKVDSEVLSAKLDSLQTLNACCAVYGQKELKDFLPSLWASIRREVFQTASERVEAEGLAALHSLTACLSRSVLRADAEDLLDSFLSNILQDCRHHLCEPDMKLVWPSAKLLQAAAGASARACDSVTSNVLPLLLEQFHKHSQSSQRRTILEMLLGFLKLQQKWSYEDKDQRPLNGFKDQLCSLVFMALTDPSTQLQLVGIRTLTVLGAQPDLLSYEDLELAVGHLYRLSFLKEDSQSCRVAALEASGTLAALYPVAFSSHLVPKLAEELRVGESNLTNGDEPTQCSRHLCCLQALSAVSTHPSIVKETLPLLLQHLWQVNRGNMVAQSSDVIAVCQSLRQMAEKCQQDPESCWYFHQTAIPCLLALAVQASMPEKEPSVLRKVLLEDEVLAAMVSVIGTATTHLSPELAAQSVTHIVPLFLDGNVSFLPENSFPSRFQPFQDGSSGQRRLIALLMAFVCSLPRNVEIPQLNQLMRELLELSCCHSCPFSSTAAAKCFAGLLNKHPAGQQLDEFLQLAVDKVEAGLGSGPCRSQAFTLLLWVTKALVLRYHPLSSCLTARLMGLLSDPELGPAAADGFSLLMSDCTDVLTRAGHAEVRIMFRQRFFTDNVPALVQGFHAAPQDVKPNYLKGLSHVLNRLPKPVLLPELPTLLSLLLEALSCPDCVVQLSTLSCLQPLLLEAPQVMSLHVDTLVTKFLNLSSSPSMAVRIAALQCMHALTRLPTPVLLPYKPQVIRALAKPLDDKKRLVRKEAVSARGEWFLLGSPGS

[3] = molecular target: T3, cysteines in MDA-MB-231 and Ramos cells (Homo sapiens, UniProt Q9NVC6)
T3 sequence (Q9NVC6 1-651): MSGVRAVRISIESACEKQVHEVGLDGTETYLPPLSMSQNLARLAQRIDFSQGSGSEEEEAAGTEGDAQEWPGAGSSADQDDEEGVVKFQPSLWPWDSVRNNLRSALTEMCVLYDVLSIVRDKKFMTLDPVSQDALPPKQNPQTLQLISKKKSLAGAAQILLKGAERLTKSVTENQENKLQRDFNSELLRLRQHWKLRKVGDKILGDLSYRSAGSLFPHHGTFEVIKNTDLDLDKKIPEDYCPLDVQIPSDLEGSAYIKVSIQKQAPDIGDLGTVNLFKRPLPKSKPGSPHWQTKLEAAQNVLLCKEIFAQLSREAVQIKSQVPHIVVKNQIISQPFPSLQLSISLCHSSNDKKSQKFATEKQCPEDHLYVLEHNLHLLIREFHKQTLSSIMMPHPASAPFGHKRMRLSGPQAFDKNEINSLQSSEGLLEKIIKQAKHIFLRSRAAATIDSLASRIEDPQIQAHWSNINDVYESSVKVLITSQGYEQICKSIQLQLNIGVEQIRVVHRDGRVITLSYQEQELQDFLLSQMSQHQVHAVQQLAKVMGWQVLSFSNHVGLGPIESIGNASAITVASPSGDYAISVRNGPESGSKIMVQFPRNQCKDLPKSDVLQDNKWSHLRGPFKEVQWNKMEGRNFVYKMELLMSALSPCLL

[4] = molecular target: T4, cysteines in MDA-MB-231 and Ramos cells (Homo sapiens, UniProt Q9Y3D0)
T4 sequence (Q9Y3D0 1-163): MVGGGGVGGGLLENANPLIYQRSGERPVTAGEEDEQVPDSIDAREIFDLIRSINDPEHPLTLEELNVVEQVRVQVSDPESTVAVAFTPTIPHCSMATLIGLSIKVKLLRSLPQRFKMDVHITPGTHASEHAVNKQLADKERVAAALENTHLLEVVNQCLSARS

[5] = molecular target: T5, cysteines in MDA-MB-231 and Ramos cells (Homo sapiens, UniProt P78417); conditions: 200 μM, insitu
T5 sequence (P78417 1-241): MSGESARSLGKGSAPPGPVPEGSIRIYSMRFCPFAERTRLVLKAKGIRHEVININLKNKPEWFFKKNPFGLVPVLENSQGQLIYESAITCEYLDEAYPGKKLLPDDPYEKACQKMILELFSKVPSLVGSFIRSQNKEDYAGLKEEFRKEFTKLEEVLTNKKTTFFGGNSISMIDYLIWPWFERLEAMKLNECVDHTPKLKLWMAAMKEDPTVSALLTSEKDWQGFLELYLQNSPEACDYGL

Compound | isoTOP-ABPP ratio P78417_C32 [5]; 231 | isoTOP-ABPP ratio Q13155_C23 ([1]; 200 μM, insitu, 231) | isoTOP-ABPP ratio Q13155_C291 ([1]; 200 μM, insitu, 231) | isoTOP-ABPP ratio Q9NVC6_C649 ([3]; 200 μM, insitu, 231) | isoTOP-ABPP ratio Q96T76_C848 [2]; 231 | isoTOP-ABPP ratio P78417_C32 ([5]; ramos) | further results
COc1ccc2c(c1)CCCN2C(=O)CCl [compound 2] |  |  |  |  |  |  | isoTOP-ABPP reactivity Q13155_C291 AIMP2 ([1]; 200 μM, insitu, 231): 20.0; isoTOP-ABPP reactivity Q96T76_C848 MMS19 [2]; 231: 3.9; isoTOP-ABPP reactivity Q9NVC6_C649 MED17 ([3]; 200 μM, insitu, 231): 7.7; isoTOP-ABPP reactivity Q9Y3D0_C93 FAM96B ([4]; 200 μM, insitu, 231): 20.0
C=CC(=O)Nc1cc(F)c(N2CCN(C(=O)OC(C)(C)C)CC2)c(F)c1 [compound 38] | 1.0 | 1.4 | 1.7 | 1.2 |  |  | isoTOP-ABPP ratio Q96T76_C819 [2]; 231: 4.6; isoTOP-ABPP ratio Q9Y3D0_C93 ([4]; 200 μM, insitu, 231): 2.4
O=C(CCl)NC(=O)NC12CC3CC(CC(C3)C1)C2 [compound 12] | 20.0 | 1.6 | 1.1 | 4.0 | 20.0 |  | 
C=CC(=O)N(Cc1cccnc1)c1cc(C(F)(F)F)cc(C(F)(F)F)c1 [compound 31] | 0.8 |  | 0.8 | 0.8 | 20.0 | 2.6 | isoTOP-ABPP ratio Q96T76_C819 [2]; 231: 20.0; isoTOP-ABPP ratio Q96T76_C819 ([2]; ramos): 20.0
Cn1cc(S(=O)(=O)N2CCOCC2)cc1C(=O)NC(=O)CCl [compound 11] |  |  |  |  |  |  | isoTOP-ABPP ratio Q13155_C23 ([1]; 100 μM in situ 231): 1.2; isoTOP-ABPP ratio Q13155_C291 ([1]; 100 μM in situ 231): 0.9; isoTOP-ABPP ratio, cysteine Q96T76_C819 ([2]; 100 μM in situ 231): 0.8; isoTOP-ABPP ratio Q9NVC6_C649 ([3]; 100 μM in situ 231): 0.8; isoTOP-ABPP ratio Q9Y3D0_C93 ([4]; 100 μM in situ 231): 0.9
O=C(CCl)NCCc1c[nH]c2ccccc12 [compound 13] | 20.0 | 0.9 |  | 1.1 | 0.6 | 20.0 | isoTOP-ABPP ratio Q96T76_C848 ([2]; ramos): 1.5; isoTOP-ABPP ratio Q9NVC6_C649 ([3]; 200 μM, insitu, ramos): 1.0; isoTOP-ABPP ratio Q9Y3D0_C93 ([4]; 200 μM, insitu, ramos): 1.4
O=C(CCl)N1CCN(CC(=O)N2CCOCC2)CC1 [compound 29] |  |  |  |  |  | 20.0 | isoTOP-ABPP ratio Q13155_C23 ([1]; 200 μM, insitu, ramos): 1.6; isoTOP-ABPP ratio Q96T76_C848 ([2]; ramos): 1.0; isoTOP-ABPP ratio Q9NVC6_C649 ([3]; 200 μM, insitu, ramos): 1.6; isoTOP-ABPP ratio Q9Y3D0_C93 ([4]; 200 μM, insitu, ramos): 1.0
O=C(CCl)NC12CC3CC(CC(C3)C1)C2 [compound 21] |  | 0.9 | 0.8 | 0.8 | 0.7 |  | isoTOP-ABPP ratio Q9Y3D0_C93 ([4]; 200 μM, insitu, 231): 0.5
O=C(CCl)N1CCC(Cc2ccccc2)CC1 [compound 9] |  |  |  |  |  |  | isoTOP-ABPP reactivity Q13155_C291 AIMP2 ([1]; 200 μM, insitu, 231): 1.9; isoTOP-ABPP reactivity Q96T76_C848 MMS19 [2]; 231: 20.0; isoTOP-ABPP reactivity Q9NVC6_C649 MED17 ([3]; 200 μM, insitu, 231): 2.2
